# pIC50: −log10 of the molar value.
# Tests used:
# [1] = test system: HCT-116 human colon carcinoma cells; test: In vitro cytotoxicity (XTT assay), HCT-116; settings: HCT-116, 72 h, read-out: IC50 HCT-116
# [2] = test system: HCT-116/VM46 human colon carcinoma cells; test: In vitro cytotoxicity (XTT assay), teniposide-resistant, multidrug resistance phenotype HCT-116/VM46
Compound,pIC50 [1],"pIC50 ([2]; Homo sapiens, HCT-116/VM46, 72 h, read-out: IC50 HCT-116/VM46)","fold resistance relative to HCT116 cells ([2]; value in parenthesis, HCT-116/VM46 relative to HCT116 cells, 4320 min)"
CC(=O)O[C@@]12CO[C@@H]1C[C@H](O)[C@@]1(C)C(=O)CC3=C(C)[C@@H](OC(=O)[C@H](O)[C@@H](NC(=O)c4ccccc4)c4ccccc4)C[C@@](O)([C@@H](OC(=O)c4ccccc4)[C@H]21)C3(C)C [10-Desacetoxytaxol],8.10,,
CC(=O)O[C@H]1C(=O)[C@@]2(C)[C@H]([C@H](OC(=O)c3ccccc3)[C@]3(O)C[C@H](OC(=O)[C@H](O)[C@@H](NC(=O)c4ccccc4)c4ccccc4)C(C)=C1C3(C)C)[C@]1(OC(C)=O)CO[C@@H]1C[C@@H]2O [Taxol],8.40,6.36,124
